{
  "source": "patent US8809368B2",
  "about": "“Compounds affecting gap junction activity” (Kansas State University Research Foundation, priority 2006, dated 2014)",
  "key": {"caspase-3": {"system": "caspase-3", "assay": "CoCl2 chemical hypoxia in R28 cells, caspase-3 activation by Western blot", "format": "cell-based, rat", "description": "(A) About 70% confluent retinal R28 cells were treated with 100, 200 and 500 μM CoCl2 for 24 h with or without the pre-treatment of PQ1 (10 μM, 40 min) in a cell culture chamber (5% CO2, room air, 37° C.). Caspase-3 activation was determined by Western blotting in whole cell homogenates (WCH). (B) HIF1α stabilization was measured in the nuclear extracts (NE) after treatment with 500 μM CoCl2 at different time intervals with or without the pretreatment of PQ1. […] Levels of Cx43 and phosphoCx43-Ser368 are measured in WCH. β-Actin is used as a loading control.\nApproximately 70% confluent retinal R28 cells were pre-incubated with PQ1 (10 μM, 40 min), followed by CoCl2 treatments at 100, 200 and 500 μM for different time periods in a cell culture chamber (5% CO2, room air, 37° C.). Hypoxia induction was confirmed by testing the hypoxia-inducible factor 1-α (HIF1α) protein expression levels in nuclear extracts by Western blotting.\nWestern blot. Western blotting was performed as described previously. […]\nNext, it was determined whether PQ1 inhibition of gap junctions could prevent retinal neurosensory R28 cells from apoptosis using a chemical (CoCl2)-induced ischemia system as our model. […]"}, "T47D cells [1]": {"system": "T47D cells", "assay": "Gap junction activity (GJIC), flow cytometry of dye coupling, T47D cells", "format": "cell-based, human", "description": "FIG. 4(A) MDA-MB-453 and (B) T47D cells were treated with low (500 nM) and high (10 μM) concentrations of PQs for 24 hours. Monolayers of acceptor cell population were grown on 25-cm flasks in the presence of Vibrant DiD. Vybrant DiD in acceptor cells is not able to pass through the gap junctions because of its hydrophobic property. Single cell suspensions of donor treated cells were prepared, labeled with 0.05 μg/ml calcein-AM, incubated at 37 C for 5 minutes. Quantification of dye coupling between the donor and acceptor cells was assessed by dual-excitation flow cytometry. […] Cells treated with 10 μM PQ3 have approximately 40-50% decrease in gap junction activity compared control or DMSO."}, "Cx43": {"system": "Cx43", "assay": "Western blot of Cx43 and phosphorylated Cx43 in T47D cells", "format": "cell-based, human", "details": "10, 100, 200 and 500 nM, 24 hours", "description": "(§1) T47D cells were dosed with PQ1 for 24 hours. The Western blot analysis was performed as described in Materials and Methods. Whole cell extract was analyzed for Cx 43, Cx32, and Cx26. Experiment was performed at least three times.\n(§2) Furthermore, whole cell extract of PQ1 treatment was analyzed for the changes in gap junctional proteins, connexins. Cells were treated with 10, 100, 200, and 500 nM PQ1 for 24 hours. Western blot analysis was performed against Cx26, Cx32, and Cx43 (FIG. 17). […] Anti-tubulin was used as a loading control.\n(§3) Western Blot Analysis. Cells were grown in serum supplemented RPMI media until they were 90% confluent in 75 cm^2 flasks. Cells were kept in starving media containing phenol red-free DMEM with 5% charcoal dextran stripped serum, overnight. Cells were dosed with 0, 10, 100, 200 and 500 nM of PQ1 for 24 hours. Cells were washed three times with cold PBS and then were harvested using lysis buffer (20 mM Tris pH 7.5, 0.5 mM EDTA, 0.5 mM EGTA, 0.5% Triton X-100) with 1:1000 dilution of protease inhibitors (Sigma-Aldrich, Saint Louis, Mo.). Cell lysate was sonicated and centrifuged at 13,000 rpm for 30 minutes at 4° C. […] Western blots were detected by enhanced chemiluminescence detection reagents (Pierce, Rockford, Ill., USA)."}, "Cx32": {"system": "Cx32", "assay": "Western blot of Cx32 in T47D cells", "format": "cell-based, human", "details": "10, 100, 200 and 500 nM, 24 hours", "description": "as §1, §2, §3"}, "R28 cells": {"system": "R28 cells", "assay": "Apoptosis assay, Annexin V-FITC/PI flow cytometry, R28 cells", "format": "cell-based, rat", "excerpt": "(A) Representative flow cytometer images of R28 cells with different treatments of PQ1 and/or CoCl2. The y-axis quantifies the number of cells stained with propidium iodine and the x-axis quantifies number of cells stained with Annexin V-FITC. (B,C) Histogram of % apoptotic cells after treatment with CoCl2 and PQ1. The percentage of apoptotic cells represents cells that are Annexin V-FITC positive and both propidium iodide and Annexin V-FITC positive after different time periods.\nApoptosis assay. Approximately 70% confluent R28Cells in 25 cm2 flasks were treated with PQ1 at 10 μM for 40 min followed by treatment with 500 μM CoCl2 for different time periods to induce apoptosis. After this, cells were harvested and stained with Annexin V-FITC and propidium iodide (PI) according to the manufacturer's protocol (BioVision # K101-100). Annexin V-FITC/PI binding was analyzed by flow cytometry using a BD FACSCalibur system and data was analyzed using the CellQuest software.\nThe later phase of apoptosis is assessed by measuring the DNA labeling with the PI, an indicator of the cell membrane permeabilization."}, "T47D cells [2]": {"system": "T47D cells", "assay": "Cell morphology, T47D cells", "format": "cell-based, human", "details": "varying concentrations, 24 hours", "description": "Cell Morphology: T47D cells (1000 cells/ml) were seeded in a six-well plate for 24 hours. Next day, cells were dosed with varying concentrations of PQ1 for 24 hours. Cells were observed under a microscope before and after the experiment. No effect seen on the morphology of cells in the presence of PQ1."}},
  "data": [
    {"smiles": "COc1cc(NCCCN)c2nccc(C)c2c1Oc1cccc(C(F)(F)F)c1.O=C(O)CCC(=O)O", "note": "[PQ1, 6-Methoxy-8-[(3-aminopropyl)amino]-4-methyl-5-(3-trifluoromethylphenyloxy) quinoline succinic acid]", "values": [
      {"measurement": "CoCl2-induced activation of caspase-3", "setting": "caspase-3; PQ1 10 μM 40 min pre-incubation, then 500 μM CoCl2 24 h", "result": "blocked the activation of caspase-3 substantially"},
      {"measurement": "activation of caspase-3", "setting": "caspase-3; PQ1 alone", "result": "did not cause activation"},
      {"measurement": "increase in GJIC", "setting": "T47D cells [1]; FIG. 4, 24 hours", "result": "20-50%"},
      {"measurement": "effect on gap junction intercellular communication", "setting": "T47D cells [1]; Table 1, 500 nM", "result": "Increase"},
      {"measurement": "Cx43 expression", "setting": "Cx43", "result": "no effect"},
      {"measurement": "Cx32 expression", "setting": "Cx32", "result": "no effect"},
      {"measurement": "protection from CoCl2-induced apoptosis", "setting": "R28 cells; 10 μM PQ1 40 min pre-treatment, then CoCl2 500 μM", "result": "protected the cells significantly"},
      {"measurement": "damage to the cells", "setting": "R28 cells; 10 μM PQ1 only, 36 h", "result": "did not cause any damage"},
      {"measurement": "cell morphology", "setting": "T47D cells [2]", "result": "No effect"}
    ]}
  ]
}
